# Source: ChEMBL document CHEMBL1201862, “PubChem BioAssay data set” (2004)
# Activity calls are given as the source filed them.
# Legend:
# Escherichia coli = test: microbe, parasite or virus in culture
# [1] = Trypanosoma cruzi growth suppression in host cells – NIH3T3 host cells, beta-gal luminescence, confirmation (AID 2044); format: functional, cell-based;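 further: intracellular parasites grown in NIH/3T3 mouse fibroblasts as host cells; luminescent beta-galactosidase reporter signal from transgenic T. cruzi replicating inside host cells; inhibitors lower the luminescence signal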
# [2] = NIH3T3 cell viability loss – ATP luminescence, mouse fibroblasts, counter-screen, dose response (AID 2010); format: functional, cell-based;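 further: cells exposed to compound for about 90 hours before reading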
# [3] = target: Voltage-dependent T-type calcium channel subunit alpha-1H (Homo sapiens, UniProt O95180); format: functional;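 further: channel activity triggered by adding a high calcium stimulation buffer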
# HEK293 [4] = test: cells; settings: Homo sapiens
# HEK293 [5] = test: cells; settings: Homo sapiens; remark: listed apart in the source
# [6] = NIH-3T3 fibroblast cytotoxicity, dose response, cytotoxicity control, cell-based, fluorescence, Alamar Blue, secondary assay (AID 2327); format: functional;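 further: NIH-3T3 mouse fibroblasts cultured with fluconazole at 8 µg/mL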
# [7] = target: T1, RNA-binding protein pos-1 (Caenorhabditis elegans, UniProt G5EF15); test: disruptors of C. elegans POS-1 RNA interaction – biochemical, fluorescence polarization, dose response (AID 1964);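 further: purified POS-1 fused to maltose binding protein made in E. coli; potency of compounds blocking POS-1 binding to fluorescent RNA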
# T1 sequence (G5EF15 whole entry): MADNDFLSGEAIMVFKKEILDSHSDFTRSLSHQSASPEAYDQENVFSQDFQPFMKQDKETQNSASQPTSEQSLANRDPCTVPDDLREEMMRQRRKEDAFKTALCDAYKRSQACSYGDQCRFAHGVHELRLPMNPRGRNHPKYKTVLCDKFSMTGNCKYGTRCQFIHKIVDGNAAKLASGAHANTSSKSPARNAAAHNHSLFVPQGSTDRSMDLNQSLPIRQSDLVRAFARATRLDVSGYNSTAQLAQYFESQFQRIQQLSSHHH
# [8] = target: T2, Zinc finger protein mex-5 (Caenorhabditis elegans, UniProt Q9XUB2); test: potency of MEX-5 RNA-binding blockers – biochemical, C. elegans, fluorescence polarization, dose response (AID 1960)
# T2 sequence (Q9XUB2 whole entry): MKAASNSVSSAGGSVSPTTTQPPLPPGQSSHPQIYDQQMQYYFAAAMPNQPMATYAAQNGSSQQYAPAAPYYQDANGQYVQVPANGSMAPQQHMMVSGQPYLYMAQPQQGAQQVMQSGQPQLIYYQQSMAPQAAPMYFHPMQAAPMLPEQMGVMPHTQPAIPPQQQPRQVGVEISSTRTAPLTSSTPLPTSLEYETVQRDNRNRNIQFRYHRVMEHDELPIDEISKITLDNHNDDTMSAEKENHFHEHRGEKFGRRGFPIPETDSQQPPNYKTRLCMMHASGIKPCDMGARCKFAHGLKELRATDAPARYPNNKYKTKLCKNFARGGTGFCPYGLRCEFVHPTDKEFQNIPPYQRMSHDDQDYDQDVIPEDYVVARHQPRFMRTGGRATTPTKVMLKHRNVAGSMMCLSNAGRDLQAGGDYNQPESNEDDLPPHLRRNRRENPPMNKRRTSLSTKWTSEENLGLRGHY
# [9] = fluconazole-exposed Candida albicans growth modulators – fluorescence, retest, confirmation (AID 2467); format: functional, cell-based
# fMet-Leu-Phe receptor = target: T3, fMet-Leu-Phe receptor (Homo sapiens, UniProt P21462); test: formyl peptide receptor binders – dose response (AID 519); format: functional
# T3 sequence (P21462 whole entry): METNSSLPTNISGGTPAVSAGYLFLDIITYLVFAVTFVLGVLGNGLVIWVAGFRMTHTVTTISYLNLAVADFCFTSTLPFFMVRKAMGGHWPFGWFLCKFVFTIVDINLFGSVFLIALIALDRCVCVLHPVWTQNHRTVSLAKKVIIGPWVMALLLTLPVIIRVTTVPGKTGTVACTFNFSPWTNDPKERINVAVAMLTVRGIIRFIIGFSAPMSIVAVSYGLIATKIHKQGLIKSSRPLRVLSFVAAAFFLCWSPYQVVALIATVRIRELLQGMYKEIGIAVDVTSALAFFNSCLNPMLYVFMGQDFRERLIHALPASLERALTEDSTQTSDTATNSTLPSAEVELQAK
# [10] = test system: Streptococcus sp. 'group A'; test: Streptococcus pyogenes SK(-)GAS viability under kanamycin – luminescence, BacTiterGlo, confirmation, counter-screen for streptokinase expression inhibitor project, dose response (AID 1900); format: functional, organism-based
# Streptococcus = test: GAS UMAA2166 growth inhibition – luminescence, BacTiterGlo, counter-screen for streptokinase expression inhibitor project, dose response (AID 1915); format: functional, organism-based;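 further: potency for reduction of bacterial viability or growth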
# [11] = target: Photoreceptor-specific nuclear receptor (Homo sapiens, UniProt Q9Y5X4); format: functional, cell-based;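 further: CHO-S cells with Gal4-NCOR and VP16-NR2E3 two-hybrid luciferase reporter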
# [12] = loss of viability in HepG2 cells – cell-based, CellTiter-Glo, cherry-picked, cytotoxicity control for Shn3 inhibitor project, dose response (AID 624134); format: functional
# [13] = non-specific 3'UTR reporter inhibition in Clone20-Shn3RL – cell-based, Renilla luciferase, cherry-picked, counter-screen for Shn3 inhibitor project, dose response (AID 624133); format: functional
# Protein Wnt-3a = Protein Wnt-3a (Mus musculus, UniProt P27467); test: antagonism of Wnt3a pathway luciferase reporter – Wnt-LIGHT cells, luminescence, selectivity assay for Gli-SUFU antagonist project, dose response (AID 651570); format: functional; settings: read-out: IC50_Mean;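 further: Wnt-LIGHT reporter cells stimulated with conditioned medium from Wnt3a-producing cells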
# [14] = target: T4, Serine/threonine-protein phosphatase (Candida dubliniensis (strain CD36 / CBS 7987 / NCPF 3949 / NRRLY-17841) (Yeast), UniProt B9W6M3); test: blockers of CaCl2-induced CDRE-lacZ signaling – S. cerevisiae, luminescence, secondary, dose response (AID 2388); format: functional, cell-based;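 further: yeast reporter cells carrying a calcineurin-responsive lacZ construct stimulated with calcium chloride; luminescent beta-galactosidase reporter signal in whole cells rather than isolated phosphatase activity; potency for inhibition where a drop in reporter signal means calcineurin blockade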
# T4 sequence (B9W6M3 whole entry): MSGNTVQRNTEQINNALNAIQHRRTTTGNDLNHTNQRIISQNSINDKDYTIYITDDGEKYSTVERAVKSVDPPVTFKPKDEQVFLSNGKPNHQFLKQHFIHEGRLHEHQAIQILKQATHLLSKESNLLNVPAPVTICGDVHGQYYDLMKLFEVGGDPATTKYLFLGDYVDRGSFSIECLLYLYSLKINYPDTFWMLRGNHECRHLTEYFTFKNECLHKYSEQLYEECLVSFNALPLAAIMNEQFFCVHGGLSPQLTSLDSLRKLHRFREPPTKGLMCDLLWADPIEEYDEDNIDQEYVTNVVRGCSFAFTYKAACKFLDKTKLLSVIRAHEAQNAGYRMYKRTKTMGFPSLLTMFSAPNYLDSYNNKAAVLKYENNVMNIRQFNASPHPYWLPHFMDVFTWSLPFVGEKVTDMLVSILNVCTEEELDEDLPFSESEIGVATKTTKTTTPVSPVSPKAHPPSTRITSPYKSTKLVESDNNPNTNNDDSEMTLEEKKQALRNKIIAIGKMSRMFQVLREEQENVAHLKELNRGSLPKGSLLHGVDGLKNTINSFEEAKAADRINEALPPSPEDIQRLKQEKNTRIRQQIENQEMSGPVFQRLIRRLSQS
# Nonstructural protein 1 = Nonstructural protein 1 (Influenza A virus, UniProt Q194T2); format: functional, Influenza A virus (A/California/07/2009(H1N1))
# [15] = target: ATP-dependent molecular chaperone HSP82 (Candida albicans (strain WO-1) (Yeast), UniProt C4YTQ8); test: steroid-induced GRE reporter decrease in yeast – S. cerevisiae, luminescence, Hsp90 inhibitor project, dose response (AID 2400); format: functional, cell-based;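 further: beta-galactosidase luminescence from glucocorticoid response element reporter as proxy for Hsp90 function; inhibitor potency where signal loss means Hsp90 inhibition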
# [16] = target: 26S proteasome non-ATPase regulatory subunit 14 (Homo sapiens, UniProt O00487); test: inhibition of proteasome subunit RPN11 – biochemical, fluorescence polarization, uHTS hits, confirmation (AID 602368); format: functional
# [17] = target: 72 kDa type IV collagenase (Homo sapiens, UniProt P08253); test: Dose Response validation of uHTS RPN11 inhibitor hits using a MMP-2 Fluorescence assay.; format: functional
# Prothrombin = Prothrombin (Bos taurus, UniProt P00735); test: thrombin protease inhibitors – biochemical, fluorescence polarization, uHTS hits, dose response (AID 602369); format: functional
# [18] = THP-1 cell cytotoxicity, dose response, cytotoxicity control for non-replicating M. tuberculosis project (AID 489025); format: functional
# [19] = Luminescence Cell-Based Dose Retest to Confirm Inhibitors of Cancer Stem Cells. [Related pubchem assays (depositor defined):AID2717, AID2721]; format: functional; settings: Homo sapiens
# [20] = HepG2 cell cytotoxicity, dose response, cytotoxicity control for non-replicating M. tuberculosis project (AID 489018); format: functional; settings: Mycobacterium tuberculosis
# [21] = Vero E6 cell cytotoxicity, dose response, cytotoxicity control for non-replicating M. tuberculosis project, secondary assay (AID 492998); format: functional, VeroE6; settings: Vero C1008
# [22] = target: T5, Microphthalmia-associated transcription factor (Homo sapiens, UniProt O75030); test: reducers of TRPM1 reporter luminescence, concentration series – cell-based, SK-MEL-5, cherry-picked, set 3, MITF inhibitor project, dose response (AID 493073); format: functional;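 further: SK-MEL-5 melanoma cells with luciferase driven by the MITF target TRPM1 promoter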
# T5 sequence (O75030 whole entry): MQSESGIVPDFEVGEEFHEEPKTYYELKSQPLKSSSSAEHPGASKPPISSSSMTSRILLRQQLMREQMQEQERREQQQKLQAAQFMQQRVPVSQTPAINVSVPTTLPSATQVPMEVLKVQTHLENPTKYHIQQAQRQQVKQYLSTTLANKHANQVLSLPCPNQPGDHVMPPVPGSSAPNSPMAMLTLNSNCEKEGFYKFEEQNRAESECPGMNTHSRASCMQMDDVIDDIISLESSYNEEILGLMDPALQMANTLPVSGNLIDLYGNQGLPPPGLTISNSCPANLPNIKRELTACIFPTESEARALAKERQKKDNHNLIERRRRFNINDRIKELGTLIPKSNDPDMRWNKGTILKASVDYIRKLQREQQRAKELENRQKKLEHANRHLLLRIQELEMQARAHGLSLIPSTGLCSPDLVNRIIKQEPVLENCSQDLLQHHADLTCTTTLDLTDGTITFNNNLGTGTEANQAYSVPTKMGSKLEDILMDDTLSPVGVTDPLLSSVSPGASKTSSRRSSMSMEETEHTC
# cells = format: functional
# A-375 = test: MITF: Counter assay: A375 proliferation Measured in Cell-Based System Using Plate Reader - 2084-03_Inhibitor_Dose_DryPowder_Activity. [Related pubchem assays (depositor defined):AID488944]; format: functional; settings: Homo sapiens
# INS1 = test: INS-1E survival protection against cytokine death – cell-based, luminescence, retest, dose response (AID 449756); format: functional; settings: Rattus norvegicus;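 further: cell death triggered by IL-1 beta plus TNF-alpha plus IFN-gamma mixture; protective hits raise ATP signal compared with cytokine alone wells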
# [23] = reduction of Shn3 3'UTR-driven luciferase in osteoblasts – cell-based, Clone20 osteoblasts, firefly luciferase, cherry-picked, dose response (AID 624132); format: functional;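 further: firefly luciferase luminescence from reporter carrying the Shn3 3'UTR in osteoblasts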
# [24] = viability loss in HeLa cells – cytotoxicity control for MgcRacGAP inhibitor project, dose response (AID 624300); format: functional
# Chain of Protein Wnt-3a (P27467 whole entry): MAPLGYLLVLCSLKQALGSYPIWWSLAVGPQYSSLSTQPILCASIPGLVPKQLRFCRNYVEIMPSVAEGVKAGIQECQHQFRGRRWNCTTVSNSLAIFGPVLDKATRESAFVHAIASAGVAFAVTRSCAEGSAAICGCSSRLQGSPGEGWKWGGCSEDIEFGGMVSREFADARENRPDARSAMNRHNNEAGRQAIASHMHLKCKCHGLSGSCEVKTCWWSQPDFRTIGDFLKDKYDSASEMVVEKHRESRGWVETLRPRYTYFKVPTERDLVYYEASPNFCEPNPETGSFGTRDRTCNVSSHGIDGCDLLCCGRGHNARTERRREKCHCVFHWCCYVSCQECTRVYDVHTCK
# Chain of Photoreceptor-specific nuclear receptor (Q9Y5X4 whole entry, the tested form may be a part): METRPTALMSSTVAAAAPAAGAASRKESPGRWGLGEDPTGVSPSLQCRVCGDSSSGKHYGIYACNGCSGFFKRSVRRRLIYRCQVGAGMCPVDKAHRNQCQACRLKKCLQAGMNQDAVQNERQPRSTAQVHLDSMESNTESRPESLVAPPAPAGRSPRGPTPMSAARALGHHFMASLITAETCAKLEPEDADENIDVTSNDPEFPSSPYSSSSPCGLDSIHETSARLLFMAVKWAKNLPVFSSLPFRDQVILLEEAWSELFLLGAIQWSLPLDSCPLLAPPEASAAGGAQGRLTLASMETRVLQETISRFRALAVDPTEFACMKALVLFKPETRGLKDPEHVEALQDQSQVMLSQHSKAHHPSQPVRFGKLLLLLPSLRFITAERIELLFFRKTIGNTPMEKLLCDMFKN
# Chain of Nonstructural protein 1 (Q194T2 whole entry): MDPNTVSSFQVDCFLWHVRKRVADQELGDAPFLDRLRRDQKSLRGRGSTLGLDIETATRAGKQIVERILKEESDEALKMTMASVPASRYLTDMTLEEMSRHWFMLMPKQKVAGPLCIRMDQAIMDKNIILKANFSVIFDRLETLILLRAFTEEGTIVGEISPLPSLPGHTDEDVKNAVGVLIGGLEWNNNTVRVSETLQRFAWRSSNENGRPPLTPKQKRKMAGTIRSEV
# Chain of Voltage-dependent T-type calcium channel subunit alpha-1H (O95180 whole entry): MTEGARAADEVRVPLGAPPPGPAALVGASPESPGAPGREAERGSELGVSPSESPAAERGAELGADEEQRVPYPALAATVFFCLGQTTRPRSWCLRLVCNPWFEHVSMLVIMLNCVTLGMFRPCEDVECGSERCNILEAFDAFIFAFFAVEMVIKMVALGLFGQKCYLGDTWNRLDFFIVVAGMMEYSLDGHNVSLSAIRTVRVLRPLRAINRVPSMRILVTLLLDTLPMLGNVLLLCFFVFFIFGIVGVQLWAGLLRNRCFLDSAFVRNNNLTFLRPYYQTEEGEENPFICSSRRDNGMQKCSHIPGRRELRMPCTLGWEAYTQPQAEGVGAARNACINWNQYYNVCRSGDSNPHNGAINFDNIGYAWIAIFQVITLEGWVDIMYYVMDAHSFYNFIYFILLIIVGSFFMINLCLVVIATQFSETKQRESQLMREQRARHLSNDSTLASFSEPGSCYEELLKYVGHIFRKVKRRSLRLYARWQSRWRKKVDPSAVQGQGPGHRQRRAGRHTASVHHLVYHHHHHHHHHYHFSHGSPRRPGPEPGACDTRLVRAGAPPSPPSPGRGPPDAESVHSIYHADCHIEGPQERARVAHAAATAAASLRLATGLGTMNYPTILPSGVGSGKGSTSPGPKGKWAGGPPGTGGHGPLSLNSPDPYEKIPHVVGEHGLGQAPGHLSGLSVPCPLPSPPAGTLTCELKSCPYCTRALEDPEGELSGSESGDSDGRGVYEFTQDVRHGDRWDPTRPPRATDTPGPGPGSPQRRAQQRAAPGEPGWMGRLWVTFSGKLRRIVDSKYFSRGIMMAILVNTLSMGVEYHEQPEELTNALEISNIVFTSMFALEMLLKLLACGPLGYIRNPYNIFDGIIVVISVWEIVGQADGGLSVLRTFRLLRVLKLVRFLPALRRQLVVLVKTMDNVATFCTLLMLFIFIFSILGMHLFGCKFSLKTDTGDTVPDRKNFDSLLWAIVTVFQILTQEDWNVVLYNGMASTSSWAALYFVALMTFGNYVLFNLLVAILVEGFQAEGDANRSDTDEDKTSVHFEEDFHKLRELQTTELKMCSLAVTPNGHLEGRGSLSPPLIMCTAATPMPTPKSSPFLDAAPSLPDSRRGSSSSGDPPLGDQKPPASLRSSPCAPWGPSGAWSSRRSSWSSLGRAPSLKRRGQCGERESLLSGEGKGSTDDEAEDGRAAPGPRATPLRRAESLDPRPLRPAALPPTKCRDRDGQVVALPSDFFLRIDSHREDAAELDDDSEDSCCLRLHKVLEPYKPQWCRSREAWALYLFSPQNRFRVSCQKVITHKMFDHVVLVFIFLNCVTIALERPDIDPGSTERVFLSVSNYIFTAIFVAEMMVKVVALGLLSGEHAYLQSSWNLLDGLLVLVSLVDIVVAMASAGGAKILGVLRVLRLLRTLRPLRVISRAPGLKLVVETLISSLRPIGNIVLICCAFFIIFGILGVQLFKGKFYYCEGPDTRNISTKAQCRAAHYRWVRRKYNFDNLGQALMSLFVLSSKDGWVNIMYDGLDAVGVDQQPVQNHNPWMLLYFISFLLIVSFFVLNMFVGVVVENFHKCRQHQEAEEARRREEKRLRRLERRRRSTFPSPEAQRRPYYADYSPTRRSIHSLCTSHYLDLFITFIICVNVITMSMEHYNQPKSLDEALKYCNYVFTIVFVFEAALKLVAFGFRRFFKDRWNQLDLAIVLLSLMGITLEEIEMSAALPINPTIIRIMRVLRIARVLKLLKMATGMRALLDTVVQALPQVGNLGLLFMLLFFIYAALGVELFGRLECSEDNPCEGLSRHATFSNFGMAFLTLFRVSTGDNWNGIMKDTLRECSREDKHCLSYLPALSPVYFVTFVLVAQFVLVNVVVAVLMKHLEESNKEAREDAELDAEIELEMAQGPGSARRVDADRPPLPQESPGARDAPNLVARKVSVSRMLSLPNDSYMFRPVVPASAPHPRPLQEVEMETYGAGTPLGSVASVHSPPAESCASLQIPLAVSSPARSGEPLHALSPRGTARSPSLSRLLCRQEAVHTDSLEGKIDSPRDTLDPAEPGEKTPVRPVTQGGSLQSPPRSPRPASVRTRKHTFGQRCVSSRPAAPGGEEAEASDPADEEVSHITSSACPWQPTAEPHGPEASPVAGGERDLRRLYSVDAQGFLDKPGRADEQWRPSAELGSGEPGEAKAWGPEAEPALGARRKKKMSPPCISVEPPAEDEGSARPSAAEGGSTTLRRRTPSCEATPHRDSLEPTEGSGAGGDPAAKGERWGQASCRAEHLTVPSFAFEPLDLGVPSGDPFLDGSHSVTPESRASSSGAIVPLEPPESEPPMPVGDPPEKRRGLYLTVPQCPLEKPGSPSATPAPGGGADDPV
# Chain of ATP-dependent molecular chaperone HSP82 (C4YTQ8 whole entry): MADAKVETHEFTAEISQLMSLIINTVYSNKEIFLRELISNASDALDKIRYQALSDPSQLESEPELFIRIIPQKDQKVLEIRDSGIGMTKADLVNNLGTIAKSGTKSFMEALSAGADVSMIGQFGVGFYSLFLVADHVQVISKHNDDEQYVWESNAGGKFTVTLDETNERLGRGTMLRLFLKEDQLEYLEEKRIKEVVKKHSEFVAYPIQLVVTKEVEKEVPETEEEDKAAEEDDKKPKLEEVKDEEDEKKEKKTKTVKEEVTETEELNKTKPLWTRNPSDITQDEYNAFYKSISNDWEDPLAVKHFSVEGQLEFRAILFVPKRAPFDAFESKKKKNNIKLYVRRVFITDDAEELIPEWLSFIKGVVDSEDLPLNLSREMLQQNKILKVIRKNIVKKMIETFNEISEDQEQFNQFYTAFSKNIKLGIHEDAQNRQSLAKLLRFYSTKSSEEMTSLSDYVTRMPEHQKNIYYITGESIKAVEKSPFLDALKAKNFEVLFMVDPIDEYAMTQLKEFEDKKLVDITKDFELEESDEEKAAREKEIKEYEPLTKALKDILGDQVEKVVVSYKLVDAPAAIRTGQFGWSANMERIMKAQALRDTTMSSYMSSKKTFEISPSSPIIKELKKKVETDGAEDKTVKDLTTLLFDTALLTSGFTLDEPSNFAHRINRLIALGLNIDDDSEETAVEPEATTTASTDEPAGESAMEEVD
# Chain of 72 kDa type IV collagenase (P08253 whole entry): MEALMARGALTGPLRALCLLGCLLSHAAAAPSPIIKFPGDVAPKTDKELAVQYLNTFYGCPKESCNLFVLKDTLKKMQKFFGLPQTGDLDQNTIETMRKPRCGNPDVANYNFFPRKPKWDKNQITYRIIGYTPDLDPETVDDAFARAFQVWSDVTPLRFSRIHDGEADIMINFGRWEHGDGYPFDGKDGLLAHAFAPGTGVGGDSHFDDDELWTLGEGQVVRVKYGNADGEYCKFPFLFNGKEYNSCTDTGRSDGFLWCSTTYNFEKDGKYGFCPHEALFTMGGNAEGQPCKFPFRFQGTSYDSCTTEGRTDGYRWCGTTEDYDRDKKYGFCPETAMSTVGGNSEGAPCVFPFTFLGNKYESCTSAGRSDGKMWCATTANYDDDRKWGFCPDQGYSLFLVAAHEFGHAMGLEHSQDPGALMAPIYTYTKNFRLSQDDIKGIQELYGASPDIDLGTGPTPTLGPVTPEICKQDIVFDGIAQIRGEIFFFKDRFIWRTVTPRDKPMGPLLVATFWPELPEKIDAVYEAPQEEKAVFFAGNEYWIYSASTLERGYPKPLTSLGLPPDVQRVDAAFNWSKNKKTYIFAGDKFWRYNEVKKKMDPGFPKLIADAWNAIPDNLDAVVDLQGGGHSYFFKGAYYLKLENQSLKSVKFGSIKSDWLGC
# Chain of 26S proteasome non-ATPase regulatory subunit 14 (O00487 whole entry): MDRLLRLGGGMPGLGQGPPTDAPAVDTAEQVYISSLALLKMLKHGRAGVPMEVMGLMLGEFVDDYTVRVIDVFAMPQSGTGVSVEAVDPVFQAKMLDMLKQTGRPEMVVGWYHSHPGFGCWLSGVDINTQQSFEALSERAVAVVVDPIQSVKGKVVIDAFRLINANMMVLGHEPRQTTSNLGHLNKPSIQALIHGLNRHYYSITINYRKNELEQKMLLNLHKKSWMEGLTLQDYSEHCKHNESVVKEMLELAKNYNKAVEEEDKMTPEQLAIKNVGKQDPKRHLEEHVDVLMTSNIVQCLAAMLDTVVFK
smiles,measurement,setting,value
COc1ccc(N2C(=O)C3C4C=CC(C4)C3C2=O)nn1 (centres undefined),AC50,Escherichia coli,26.5 µM (active)
CCC(C)(C)n1nnnc1C(c1ccc(C)cc1)N(Cc1ccco1)Cc1cccs1 (centres undefined),EC50,[1],2.86 µM (active)
same,EC50,[2],> 60 µM (not active)
same,EC50,[3],6.74 µM (active)
same,EC50,HEK293 [4],> 59.6 µM (inactive)
same,EC50,HEK293 [5],> 59.6 µM (inactive)
COc1ccc(-c2nnc(Nc3nc4c(OC)cccc4s3)o2)c(OC)c1,EC50,[6],> 150 µM (inconclusive)
same,EC50,[7],> 300 µM (not active)
same,EC50,[8],61.3 µM (active)
same,EC50,[9],> 38 µM (not active)
same,Ki,fMet-Leu-Phe receptor,> 66.7 µM (inactive)
same,EC50,HEK293 [4],> 59.6 µM (inactive)
same,EC50,HEK293 [5],> 59.6 µM (inactive)
CC(=O)c1c(O)cc(O)c(C(C)=O)c1O,EC50,[10],3.9 µM (active)
same,EC50,Streptococcus,3.98 µM (active)
same,IC50,[11],3.24 µM (active)
CCCCCCCN1C2=NCCCN2c2ccccc21,AC50,[12],46 µM (active)
same,AC50,[13],11.8 µM (active)
same,IC50,Protein Wnt-3a,12.6 µM (active)
CCC(=O)NC(c1cccs1)c1cc([N+](=O)[O-])c2cccnc2c1O (centres undefined),EC50,[6],33.6 µM (active)
same,EC50,[9],0.185 µM (active)
same,EC50,[14],> 180 µM (inactive)
same,IC50,Nonstructural protein 1,6.66 µM (active)
same,EC50,[15],24 µM (active)
same,IC50,[16],40.3 µM (active)
same,IC50,[17],5.91 µM (active)
same,IC50,Prothrombin,> 100 µM (inactive)
same,IC50,[11],2.47 µM (active)
COc1ccc(CNc2cc(C)nc3ncnn23)c(OC)c1,IC50,Protein Wnt-3a,4.21 µM (active)
CCCn1c(=N)c(S(=O)(=O)c2ccc(F)cc2)cc2c(=O)n3cccc(C)c3nc21,AC50,Escherichia coli,42.8 µM (active)
Cc1ccn2c(Nc3ccccc3)c(-c3ccccn3)nc2c1,EC50,[1],1.16 µM (active)
same,EC50,[2],2.91 µM (active)
same,CC50,[18],6.44 µM (active)
same,AC50,[19],4.95 µM (active)
same,CC50,[20],> 20 µM (active)
same,CC50,[21],4.64 µM (active)
same,AC50,[22],9.31 µM (active)
same,IC50,cells,3.88 µM (active)
same,AC50,A-375,38.1 µM (active)
same,AC50,INS1,5.31 µM (active)
same,AC50,[23],2.31 µM (active)
same,AC50,[12],7.07 µM (active)
same,AC50,[13],3.25 µM (active)
same,CC50,[24],50 µM (active)
